Data from patent publication US9469645B2, “Compounds and compositions for the treatment of parasitic diseases” (Novartis AG, priority 2009, dated 2016).

How the values were obtained:
3D7 P. falciparum strain = assay: parasite proliferation assay in infected red blood cells (SYBR Green I); format: cell-based, Plasmodium falciparum; details: Plasmodium falciparum, 3D7, Erythrocyte, 3D7 strain; read-out: EC50 3D7 strain
Summary of the method: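 P. falciparum 3D7 grown in O+ human erythrocytes to 3–8% parasitemia and exposed to compounds. Proliferation read as the increase in parasite DNA. Detection used SYBR Green I in saponin/triton-X/EDTA lysis buffer, with overnight lysis at room temperature.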

W2 strain = assay: parasite proliferation assay in infected red blood cells (SYBR Green I), W2 strain; format: cell-based; details: Erythrocyte
Description: Compounds of the invention can be assayed to measure their capacity to inhibit proliferation of parasitemia in infected red blood cells. The proliferation is quantified by the addition of SYBR Green I (INVITROGEN)® dye which has a high affinity for double stranded DNA.

| SMILES | EC50 (3D7 P. falciparum strain) [nM] | EC50 (W2 strain) [nM] |
| --- | --- | --- |
| N[C@H](C(=O)N1CCn2c(nc(-c3ccc(F)cc3)c2Nc2ccc(F)cc2)C1)C(F)(F)F [Compound 195] | 20 | 20 |
| N[C@@H](C(=O)N1CCn2c(nc(-c3ccc(F)cc3)c2Nc2ccc(F)cc2)C1)C(F)(F)F [Compound 196] | 320 | 344 |
| CCCC(=O)Nc1ccc(C[C@H](N)C(=O)N2CCn3c(nc(-c4ccc(F)cc4)c3Nc3ccc(C)cc3)C2)cc1 [Compound 197] | 4160 | 1040 |
| Cc1ccc(Nc2c(-c3ccc(F)cc3)nc3n2CCN(C(=O)[C@H]2CCCO2)C3)cc1 [Compound 199] | 240 | 157 |
| Cc1ccc(Nc2c(-c3ccc(F)cc3)nc3n2CCN(C(=O)C(C)Oc2ccccc2)C3)cc1 (stereo not drawn) [Compound 202] | 160 | 102 |
| Cc1ccc(Nc2c(-c3ccc(F)cc3)nc3n2CCN(C(=O)C(C)Oc2cccc(Cl)c2)C3)cc1 (stereo not drawn) [Compound 203] | 970 | 369 |
| Cc1ccc(Nc2c(-c3ccc(F)cc3)nc3n2CCN(C(=O)[C@@H](O)C(C)C)C3)cc1 [Compound 204] | 10 | 10 |
| Cc1ccc(Nc2c(-c3ccc(F)cc3)nc3n2CCN(C(=O)Cc2ccncn2)C3)cc1 [Compound 206] | 1200 | 1170 |
| Fc1cccc(-c2nc3cnccn3c2Nc2ccc(Cl)c(F)c2)c1 [Compound 207] | 9310 | 2420 |
| Cc1ccc(Nc2c(-c3ccc(F)cc3)nc3n2CCN(C(=O)C(Oc2ccccc2C)C(C)C)C3)cc1 (stereo not drawn) [Compound 208] | 5870 | 1060 |
| Cc1ccc(Nc2c(-c3ccc(F)cc3)nc3n2CCN(C(=O)C2CCOCC2)C3)cc1 [Compound 209] | 11600 | 4360 |
| CCO[C@@H](Cc1ccc(O)cc1)C(=O)N1CCn2c(nc(-c3ccc(F)cc3)c2Nc2ccc(C)cc2)C1 [Compound 210] | 40 | 26 |
| Cc1ccc(Nc2c(-c3ccc(F)cc3)nc3n2CCN(C(=O)CC2CCCO2)C3)cc1 (stereo not drawn) [Compound 211] | 300 | 283 |
| Cc1ccc(Nc2c(-c3ccc(F)cc3)nc3n2CCN(C(=O)C2CCOC2)C3)cc1 (stereo not drawn) [Compound 212] | 1950 | 1980 |
| Cc1ccc(Nc2c(-c3ccc(F)cc3)nc3n2CCN(C(=O)[C@@H](N)Cc2ccc(CN)cc2)C3)cc1 [Compound 213] | 3800 | 4820 |
| CCN1CCC(CC(=O)N2CCn3c(nc(-c4ccc(F)cc4)c3Nc3ccc(C)cc3)C2)CC1 [Compound 214] | 2850 | 2010 |
| Cc1ccc(Nc2c(-c3ccc(F)cc3)nc3n2CCN(C(=O)CC2CCOC2)C3)cc1 (stereo not drawn) [Compound 215] | 830 | 650 |
| Cc1ccc(Nc2c(-c3ccc(F)cc3)nc3n2CCN(C(=O)CC2CCCCO2)C3)cc1 (stereo not drawn) [Compound 216] | 300 | 248 |
| Fc1cccc(-c2nc3n(c2Nc2ccc(Cl)c(F)c2)CCNC3)c1 [Compound 217] | 130 | 106 |

| SMILES | EC50 (3D7 P. falciparum strain) [nM] | EC50 (W2 strain) [nM] |
| --- | --- | --- |
| CCCC(=O)NCc1ccc(C[C@H](N)C(=O)N2CCn3c(nc(-c4ccc(F)cc4)c3Nc3ccc(C)cc3)C2)cc1 [Compound 218] | 4710 | 4010 |
| CCC(=O)NCc1ccc(C[C@H](N)C(=O)N2CCn3c(nc(-c4ccc(F)cc4)c3Nc3ccc(C)cc3)C2)cc1 [Compound 219] | 4970 | 3410 |
| Cc1ccc(Nc2c(-c3ccc(F)cc3)nc3n2CCN(C(=O)CC2CCNCC2)C3)cc1 [Compound 220] | 1130 | 937 |
| NC(C(=O)N1CCn2c(nc(-c3cccc(F)c3)c2Nc2ccc(Cl)c(F)c2)C1)C(F)(F)F (stereo not drawn) [Compound 221] | 90 | 83 |
| C[C@@H](C(=O)N1CCn2c(nc(-c3cccc(F)c3)c2Nc2ccc(Cl)c(F)c2)C1)c1ccccc1 [Compound 222] | 140 | 103 |
| C[C@H](C(=O)N1CCn2c(nc(-c3cccc(F)c3)c2Nc2ccc(Cl)c(F)c2)C1)c1ccccc1 [Compound 223] | 260 | 206 |
| CC[C@H](C(=O)N1CCn2c(nc(-c3ccc(F)cc3)c2Nc2ccc(C)cc2)C1)c1ccccc1 [Compound 225] | 550 | 316 |
| Cc1ccc(Nc2c(-c3ccc(F)cc3)nc3n2CCN(C(=O)C(c2ccccc2)C2CCCC2)C3)cc1 (stereo not drawn) [Compound 226] | 480 | 348 |
| Cc1ccc(Nc2c(-c3ccc(F)cc3)nc3n2CCN(C(=O)Cc2ccncc2)C3)cc1 [Compound 227] | 90 | 103 |
| NCC(=O)N1CCn2c(nc(-c3cccc(F)c3)c2Nc2ccc(Cl)c(F)c2)C1 [Compound 228] | 10 | 8 |
| CC(C)(N)C(=O)N1CCn2c(nc(-c3cccc(F)c3)c2Nc2ccc(Cl)c(F)c2)C1 [Compound 229] | 10 | 7 |
| Cc1ccc(Nc2c(-c3ccc(F)cc3)nc3n2CCN(C(=O)Cc2cc(Cl)cc(Cl)c2)C3)cc1 [Compound 230] | 320 | 255 |
| Cc1ccc(Nc2c(-c3ccc(F)cc3)nc3n2CCN(C(=O)C(c2ccccc2)C(C)C)C3)cc1 (stereo not drawn) [Compound 231] | 90 | 70 |
| Cc1ccc(CC(=O)N2CCn3c(nc(-c4ccc(F)cc4)c3Nc3ccc(C)cc3)C2)cc1 [Compound 232] | 50 | 44 |
| Cc1ccc(Nc2c(-c3ccc(F)cc3)nc3n2CCN(C(=O)Cc2ccc(F)cc2)C3)cc1 [Compound 233] | 10 | 15 |
| CC(C)(O)CC(=O)N1CCn2c(nc(-c3cccc(F)c3)c2Nc2ccc(Cl)c(F)c2)C1 [Compound 234] | 130 | 111 |
| CC(C)(O)CC(=O)N1CCn2c(nc(-c3cccc(F)c3)c2Nc2ccc(F)cc2)C1 [Compound 235] | 540 | 496 |
| CC(C)(C)OC(=O)N[C@@H](CC(=O)OCc1ccccc1)C(=O)N1CCn2c(nc(-c3cccc(F)c3)c2Nc2ccc(Cl)c(F)c2)C1 [Compound 236] | 5250 | 2060 |
| CC(C)(C)OC(=O)N[C@@H](CC(=O)OCc1ccccc1)C(=O)N1CCn2c(nc(-c3cccc(F)c3)c2Nc2ccc(F)cc2)C1 [Compound 237] | 7190 | 5720 |

| SMILES | EC50 (3D7 P. falciparum strain) [nM] | EC50 (W2 strain) [nM] |
| --- | --- | --- |
| CC(C)(C)OC(=O)N[C@@H](CC(=O)O)C(=O)N1CCn2c(nc(-c3cccc(F)c3)c2Nc2ccc(Cl)c(F)c2)C1 [Compound 240] | 10500 | 6990 |
| CC(C)(C)OC(=O)N[C@@H](CC(=O)O)C(=O)N1CCn2c(nc(-c3cccc(F)c3)c2Nc2ccc(F)cc2)C1 [Compound 241] | 5270 | 2360 |
| CC(C)(C)OC(=O)N[C@@H](Cc1ccc(N)cc1)C(=O)N1CCn2c(nc(-c3cccc(F)c3)c2Nc2ccc(Cl)c(F)c2)C1 [Compound 242] | 2090 | 288 |
| CC(C)(C)OC(=O)N[C@@H](Cc1ccc(N)cc1)C(=O)N1CCn2c(nc(-c3cccc(F)c3)c2Nc2ccc(F)cc2)C1 [Compound 243] | 2970 | 697 |
| Cc1ccc(Nc2c(-c3ccc(F)cc3)nc3n2CCN(C(=O)C(C)(C)CO)C3)cc1 [Compound 244] | 2400 | 1330 |
| Cc1ccc(Nc2c(-c3ccc(F)cc3)nc3n2CCN(C(=O)C(C)(CO)CO)C3)cc1 [Compound 245] | 2530 | 1800 |
| Cc1ccc(Nc2c(-c3ccc(F)cc3)nc3n2CCN(C(=O)[C@H](Cc2cccc(N)c2)NC(=O)OC(C)(C)C)C3)cc1 [Compound 246] | 3880 | 1790 |
| CCCNC(=O)C[C@H](NC(=O)OC(C)(C)C)C(=O)N1CCn2c(nc(-c3cccc(F)c3)c2Nc2ccc(Cl)c(F)c2)C1 [Compound 247] | 1420 | 3940 |
| CCCNC(=O)C[C@H](NC(=O)OC(C)(C)C)C(=O)N1CCn2c(nc(-c3cccc(F)c3)c2Nc2ccc(F)cc2)C1 [Compound 248] | 7010 | 4560 |
| N#Cc1ccc(Nc2c(-c3ccc(F)cc3)nc3n2CCNC3)cc1 [Compound 249] | 5390 | 5060 |
| CCCCCNC(=O)C[C@H](NC(=O)OC(C)(C)C)C(=O)N1CCn2c(nc(-c3cccc(F)c3)c2Nc2ccc(F)cc2)C1 [Compound 250] | 3880 | 3980 |
| CCCCC(=O)Nc1ccc(C[C@H](NC(=O)OC(C)(C)C)C(=O)N2CCn3c(nc(-c4cccc(F)c4)c3Nc3ccc(Cl)c(F)c3)C2)cc1 [Compound 252] | 3030 | 631 |
| CCC(=O)Nc1ccc(C[C@H](NC(=O)OC(C)(C)C)C(=O)N2CCn3c(nc(-c4cccc(F)c4)c3Nc3ccc(Cl)c(F)c3)C2)cc1 [Compound 253] | 780 | 254 |
| CCCCC(=O)Nc1ccc(C[C@H](NC(=O)OC(C)(C)C)C(=O)N2CCn3c(nc(-c4cccc(F)c4)c3Nc3ccc(F)cc3)C2)cc1 [Compound 254] | 3440 | 727 |
| CCCNC(=O)C[C@H](N)C(=O)N1CCn2c(nc(-c3cccc(F)c3)c2Nc2ccc(Cl)c(F)c2)C1 [Compound 255] | 610 | 653 |
| CCCNC(=O)C[C@H](N)C(=O)N1CCn2c(nc(-c3cccc(F)c3)c2Nc2ccc(F)cc2)C1 [Compound 256] | 1160 | 1480 |
| CCCCCNC(=O)C[C@H](N)C(=O)N1CCn2c(nc(-c3cccc(F)c3)c2Nc2ccc(F)cc2)C1 [Compound 257] | 6680 | 7000 |
| CCCCC(=O)Nc1ccc(C[C@H](N)C(=O)N2CCn3c(nc(-c4cccc(F)c4)c3Nc3ccc(Cl)c(F)c3)C2)cc1 [Compound 258] | 4920 | 3510 |
| CCC(=O)Nc1ccc(C[C@H](N)C(=O)N2CCn3c(nc(-c4cccc(F)c4)c3Nc3ccc(Cl)c(F)c3)C2)cc1 [Compound 259] | 5320 | 3020 |
